Measured values taken from US20130059783A1, “COMPOSITIONS AND METHODS FOR EXPANDING BFU-E CELLS” (priority 2010, published 2013).

How the values were obtained:
Type in all cases: cell-based, mouse
BFU-E cells [1] = assay: Colony forming assays of sorted BFU-E fractions (Table S2)
Excerpt: Separation of BFU-E and CFU-E cells by expression of CD71, CD24a or both CD71 and CD24a. C-kit positive BFU-E and CFU-E cells were sorted from FLEP cells based on expression of CD71, CD24a or both CD71 and CD24a. In all experiments the BFU-E fraction was the subset of c-kit^positive FLEP cells with the 10% lowest expression of CD71 and/or CD24a, while the CFU-E fraction was the subset with 20% highest expression of CD71 and/or CD24a. Sorted BFU-E and CFU-E populations were subjected to colony forming assays under two different conditions. […] The number of CFU-E colonies (±standard deviation) is shown. The sorted “BFU-E” populations mostly formed small CFU-E clusters rather than single CFU-E colonies in these assays. These CFU-E clusters are formed by precursors to CFU-Es and were scored separately as multi-CFU-Es. The number of “multi-CFU-Es” is not shown since these cells likely represent the same cells as those forming small BFU-E colonies.
The potential of the sorted cells to form large BFU-E, small BFU-E, CFU-G/M/Mk, and CFU-GEMM colonies (±standard deviation) was determined by a second assay in methyl cellulose containing 10U Epo, 20 nM IL-3, 20 nM IL-6 and 50 nM SCF per mL, and was scored at day 8-9. […] To determine the effect of DMOG, colony assays of sorted BFU-E (CD71 and CD24a^10% low) cells were also performed in the presence of 333 μM DMOG. In agreement with the finding that DMOG enhances BFU-E self-renewal BFU-E colonies were larger with a more immature appearance in the presence of DMOG and Dex. Therefore, in the presence of DMOG and Dex most BFU-E colonies were scored as “large BFU-Es.”
No GEMM colonies were formed (Table S2).
(§1) Colonies were scored after 3 days. […] The number of hemoglobinized early BFU-E and late BFU-E colonies was determined after 8-9 days following staining with 2,7-Diaminofluorene (Sigma Chemical, St. Louis, Mo.).

CFU-E cells [2] = assay: Colony forming assays of sorted CFU-E fractions (Table S2)
Excerpt: Separation of BFU-E and CFU-E cells by expression of CD71, CD24a or both CD71 and CD24a. C-kit positive BFU-E and CFU-E cells were sorted from FLEP cells based on expression of CD71, CD24a or both CD71 and CD24a. In all experiments the BFU-E fraction was the subset of c-kit^positive FLEP cells with the 10% lowest expression of CD71 and/or CD24a, while the CFU-E fraction was the subset with 20% highest expression of CD71 and/or CD24a. Sorted BFU-E and CFU-E populations were subjected to colony forming assays under two different conditions.
The potential of the sorted cells to form large BFU-E, small BFU-E, CFU-G/M/Mk, and CFU-GEMM colonies (±standard deviation) was determined by a second assay in methyl cellulose containing 10U Epo, 20 nM IL-3, 20 nM IL-6 and 50 nM SCF per mL, and was scored at day 8-9. […] To determine the effect of DMOG, colony assays of sorted BFU-E (CD71 and CD24a^10% low) cells were also performed in the presence of 333 μM DMOG.
as §1

BFU-E cells [3] = assay: Serum free erythroid liquid expansion (SFELE) progenitor growth assay of sorted BFU-E cells; settings: for Total cell expansion from 1000 BFU-E cells: CD71 10% low BFU-E cells, SFELE medium
Experimental: (§2) FIGS. 1A-1F. […] Error bars show one standard deviation. […] Error bars show one standard deviation. […] Shown is the fraction of c-kit+ cells after 72 hours. […] Cell numbers in each clone were estimated under the microscope on Day 8.
(§3) FIGS. 3A-3B. […] The experimental protocol was similar to that used in FIGS. 1A and B except that the CFU-E and BFU-E cells were purer (CD71 and CD24a^20% high and CD71 and CD24a^10% low, respectively). […] (A) Proliferation of sorted CFU-E cells. […] Error bars show one standard deviation. (B) Proliferation of sorted BFU-E cells. […] Error bars show one standard deviation.
FIG. 4. […] Cells were counted from day 4 until the day cell counts dropped.
(A) The total number of cells formed from 1000 BFU-E cells at different time points. […] Standard deviation between four separate biological experiments is shown in parenthesis (n/d=not determined).
(§4) We developed a modified version of the serum free erythroid liquid expansion culture (SFELE) medium described by Dolzning et al. (Dolznig et al., 2006).

CFU-E cells [4] = assay: SFELE progenitor growth assay of sorted CFU-E cells; settings: 100 nM Dex
Experimental: as §2, §3, §4

[5] = CD24a 10% low cells, 100 nM Dex
[6] = CD71/CD24a 10% low cells, 100 nM Dex and/or 333 μM DMOG
[7] = purified CD71 10% low cells, with Dex
[8] = CD24a 20% high cells, 100 nM Dex
[9] = CD71 20% high cells, 100 nM Dex
[10] = CD71 and CD24a 20% high cells (n = 1), line marked +
[11] = sorted CD71 20% high cells, with Dex
[12] = dose response curves in the absence of DMOG

C[C@@H]1C[C@H]2[C@@H]3CCC4=CC(=O)C=C[C@]4(C)[C@@]3(F)[C@@H](O)C[C@]2(C)[C@@]1(O)C(=O)CO [Dex, dexamethasone]
CFU-E colonies (BFU-E cells [1]; [5]): 96 (±23) colonies per 1000 plated cells | CFU-G/M/Meg colonies (BFU-E cells [1]; [5]): 19 (±6) colonies per 1000 plated cells | GEMM colonies (BFU-E cells [1]; [5]): 0.8 (±2) colonies per 1000 plated cells | large BFU-E colonies (BFU-E cells [1]; [5]): 178 (±28) colonies per 1000 plated cells | small BFU-E colonies (BFU-E cells [1]; [5]): 336 (±27) colonies per 1000 plated cells | CFU-E colonies (BFU-E cells [1]; CD71 10% low cells, 100 nM Dex): 66 (±28) colonies per 1000 plated cells | CFU-G/M/Meg colonies (BFU-E cells [1]; CD71 10% low cells, 100 nM Dex): 20 (±21) colonies per 1000 plated cells | GEMM colonies (BFU-E cells [1]; CD71 10% low cells, 100 nM Dex): 0 colonies per 1000 plated cells | large BFU-E colonies (BFU-E cells [1]; CD71 10% low cells, 100 nM Dex): 222 (±84) colonies per 1000 plated cells | small BFU-E colonies (BFU-E cells [1]; CD71 10% low cells, 100 nM Dex): 289 (±85) colonies per 1000 plated cells | CFU-E colonies (BFU-E cells [1]; [6]): 33 (±10) colonies per 1000 plated cells | CFU-G/M/Meg colonies (BFU-E cells [1]; [6]): 7 (±2) colonies per 1000 plated cells | GEMM colonies (BFU-E cells [1]; [6]): 0 colonies per 1000 plated cells | large BFU-E colonies (BFU-E cells [1]; [6]): 412 (±23) colonies per 1000 plated cells | small BFU-E colonies (BFU-E cells [1]; [6]): 251 (±40) colonies per 1000 plated cells | Cells forming CFU-E colonies (BFU-E cells [1]; [7]): 6.6% | Cells forming CFU-G/M/Meg colonies (BFU-E cells [1]; [7]): 2.0% | Cells forming early BFU-Es (BFU-E cells [1]; [7]): 22% | Cells forming late BFU-E colonies (BFU-E cells [1]; [7]): 29% | CFU-G/M/Meg colonies (CFU-E cells [2]; [8]): 0.3 (±0.3) colonies per 1000 plated cells | GEMM colonies (CFU-E cells [2]; [8]): 0 colonies per 1000 plated cells | large BFU-E colonies (CFU-E cells [2]; [8]): 0.4 (±2) colonies per 1000 plated cells | small BFU-E colonies (CFU-E cells [2]; [8]): 15 (±2) colonies per 1000 plated cells | CFU-E colonies (CFU-E cells [2]; [9]): 565 (±120) colonies per 1000 plated cells | CFU-G/M/Meg colonies (CFU-E cells [2]; [9]): 0 colonies per 1000 plated cells | GEMM colonies (CFU-E cells [2]; [9]): 0 colonies per 1000 plated cells | large BFU-E colonies (CFU-E cells [2]; [9]): 0 colonies per 1000 plated cells | small BFU-E colonies (CFU-E cells [2]; [9]): 17 (±31) colonies per 1000 plated cells | CFU-E colonies (CFU-E cells [2]; [10]): 526 colonies per 1000 plated cells | CFU-G/M/Meg colonies (CFU-E cells [2]; [10]): 0 colonies per 1000 plated cells | GEMM colonies (CFU-E cells [2]; [10]): 0 colonies per 1000 plated cells | large BFU-E colonies (CFU-E cells [2]; [10]): 1 colonies per 1000 plated cells | small BFU-E colonies (CFU-E cells [2]; [10]): 29 colonies per 1000 plated cells | Cells forming early BFU-E-derived colonies (CFU-E cells [2]; [11]): 0% | Cells forming late BFU-E-derived colonies (CFU-E cells [2]; [11]): 1.7% | Cells forming single-CFU-E colonies (CFU-E cells [2]; [11]): 57% | Increase of total number of cells after the first three days (BFU-E cells [3]; CD24 and CD71 10% low BFU-E cells, 100 nM Dex and/or 333 μM DMOG): ~20 fold | Total cell expansion from 1000 "BFU-E" cells, liquid culture (BFU-E cells [3]; CD24 and CD71 10% low BFU-E cells, SFELE, 100 nM Dex and/or 333 μM DMOG, day 1): 3,900 | Total cell expansion from 1000 "BFU-E" cells, liquid culture (BFU-E cells [3]; CD24 and CD71 10% low BFU-E cells, SFELE, 100 nM Dex and/or 333 μM DMOG, day 2): 30,000 | Total cell expansion from 1000 "BFU-E" cells, liquid culture (BFU-E cells [3]; CD24 and CD71 10% low BFU-E cells, SFELE, 100 nM Dex and/or 333 μM DMOG, day 3): 200,000 | Total cell expansion from 1000 "BFU-E" cells, liquid culture (BFU-E cells [3]; CD24 and CD71 10% low BFU-E cells, SFELE, 100 nM Dex and/or 333 μM DMOG, day 4): 1,200,000 | Total cell expansion from 1000 "BFU-E" cells, liquid culture (BFU-E cells [3]; CD24 and CD71 10% low BFU-E cells, SFELE, 100 nM Dex and/or 333 μM DMOG, day 5): 3,500,000 | Total cell expansion from 1000 "BFU-E" cells, liquid culture (BFU-E cells [3]; CD24 and CD71 10% low BFU-E cells, SFELE, 100 nM Dex and/or 333 μM DMOG, day 6): 7,200,000 | Total cell expansion from 1000 "BFU-E" cells, liquid culture (BFU-E cells [3]; CD24 and CD71 10% low BFU-E cells, SFELE, 100 nM Dex and/or 333 μM DMOG, day 7): 14,000,000 | Total cell expansion from 1000 "BFU-E" cells, liquid culture (BFU-E cells [3]; CD24 and CD71 10% low BFU-E cells, SFELE, 100 nM Dex and/or 333 μM DMOG, day 8): 20,000,000 | Total cell expansion from 1000 "BFU-E" cells, liquid culture (BFU-E cells [3]; CD24 and CD71 10% low BFU-E cells, SFELE, 100 nM Dex and/or 333 μM DMOG, day 9): 25,000,000 | Total cell expansion from 1000 "BFU-E" cells, liquid culture (BFU-E cells [3]; CD24 and CD71 10% low BFU-E cells, SFELE, 100 nM Dex and/or 333 μM DMOG, day 10): 25,000,000 | Total cell expansion from 1000 "BFU-E" cells, liquid culture (BFU-E cells [3]; CD24 and CD71 10% low BFU-E cells, SFELE, 100 nM Dex and/or 333 μM DMOG, day 11): 20,000,000 | Total cell expansion from 1000 BFU-E cells (BFU-E cells [3]; 100 nM Dex, 24 h): 5,367 (±1,626) | Total cell expansion from 1000 BFU-E cells (BFU-E cells [3]; 100 nM Dex, 48 h): 50,013 (±18,160) | Total cell expansion from 1000 BFU-E cells (BFU-E cells [3]; 100 nM Dex, 72 h): 297,340 (±114,540) | Total cell expansion from 1000 BFU-E cells (BFU-E cells [3]; 100 nM Dex, 120 h): 2,484,148 (±988,022) | Expansion of BFU-E cells, peak (BFU-E cells [3]; CD71 10% low cells, SFELE, 100 nM Dex, peak at day 8): 8,800 fold | Increase of proliferation of sorted BFU-E cells (BFU-E cells [3]; CD71 and CD24a 10% low cells, SFELE, 100 nM Dex and/or 333 μM DMOG, versus no additions): 42 fold | Average number of divisions of each BFU-E cell (BFU-E cells [3]; SFELE, 100 nM Dex): 13 times | Cell number per original BFU-E cell (BFU-E cells [3]; SFELE, 100 nM Dex): 8,800 cells per original BFU-E cell | Dex concentrations at which a clear effect on CFU-E formation is seen (BFU-E cells [3]; [12]): > 2 nM | Dex concentrations giving maximum effect on CFU-E formation (BFU-E cells [3]; [12]): above 10 nM | Dex concentration that supports maximal stimulation of BFU-E proliferation (BFU-E cells [3]; dose-response, FIG. 1 C and D): 10 nM | Dex concentrations with little stimulatory effect on BFU-E proliferation (BFU-E cells [3]; dose-response, FIG. 1 C and D): below 1 nM | Average number of erythroblasts formed from each CFU-E cell (CFU-E cells [4]): 28 | Expansion of sorted CFU-E cells (production of erythroblasts), peak (CFU-E cells [4]; CD71 20% high cells, peak at day 3): 28 fold
